The subject of the experiment is KB cell. In words: MTS assay, growth inhibition of KB cells. Type of experiment: cell-based. Particulars: Homo sapiens, at 10 μM concentration, incubated for 72 h, read-out: Inhibition rate (%) (growth inhibition rate of MTS assay). As to the method:
MTS assay was performed in determining the growth inhibition of cancer cells. MTS ((3-(4,5-dimethylthiazol-2-yl)-5-(3-carboxymethoxyphenyl)-2-(4-sulfophenyl)-2H-tetrazolium)), in the presence of phenazine methosulfate (PMS) and reductases, produces a formazan product that has an absorbance maximum at 490-500 nm. MTS assays (and closely related MTT assay) are commonly used to measure cell viabilities or survivals.
Briefly, KB/Hela, NCI-H460, A375, Colo205, HCT-116, U937, MCF-7, MDA-MB-231, A549, H1975 cells were seeded into 96-well plate at 4000, 4000, 2000, 2000, 2000 cells/well. After 24 h for attachment, test compound was added into each well and incubated for 72 h. A total of 20 μl of MTS reaction reagent containing the MTS (Promega, Madison, Wis.) and PMS in a ratio of 20:1 was added into each well to react with dehydrogenase enzyme in survival cells. After 3 h, the absorbance at 490 nm was monitored using Emax precision microplate reader (Molecular Devices, Sunnyvale, Calif.).
The growth inhibition rate of MTS assay at KB cell of these compounds (at 10 μM concentration) are list in Table 5.
On the technique in general: Tetrazolium dyes change colour on reduction, which living cells bring about.

Turning to `O=C(CCc1ccc(F)cc1)Nc1ncc(Cc2ccc3c(c2)OCO3)s1` [Compound 7, N-(5-Benzo[1,3]dioxol-5-ylmethyl-thiazol-2-yl)-3-(4-fluoro-phenyl)-propionamide], the inhibition (usually the relative decrease from the control value, in per cent) at 10 µM was 91.7%.

On to `Cc1cc(-c2ccccc2)cnc1NC(=O)CCc1ccccc1` [Compound 117, N-(3-Methyl-5-phenyl-pyridin-2-yl)-3-phenyl-propionamide], for which the inhibition at 10 µM stood at 94.6%.

For `O=C(CCc1ccccc1)Nc1ncc(Cc2ccccc2)s1` [Compound 2, N-(5-Benzyl-thiazol-2-yl)-3-phenyl-propionamide], the inhibition at 10 µM worked out at 95.5%. In the case of `O=C(CCc1ccc(F)cc1)Nc1ncc(Cc2ccc3ccccc3c2)s1` [Compound 23, 3-(4-Fluoro-phenyl)-N-(5-naphthalen-2-ylmethyl-thiazol-2-yl)-propionamide] it was 95.8%; in that of `O=C(CCc1ccc(F)cc1)Nc1ncc(Cc2ccc(F)c(F)c2)s1` [Compound 28, N-[5-(3,4-Difluoro-benzyl)-thiazol-2-yl]-3-(4-fluoro-phenyl)-propionamide], 95%. The figure for `COc1ccc(Cc2cnc(NC(=O)/C=C/c3ccc(C)o3)s2)cc1` [Compound 44, N-[5-(4-Methoxy-benzyl)-thiazol-2-yl]-3-(5-methyl-furan-2-yl)-acrylamide] is 93.1%; for `Cc1ccc(CCC(=O)Nc2ccc(Sc3ccccc3)cn2)o1` [Compound 80, 3-(5-Methyl-furan-2-yl)-N-(5-phenylsulfanyl-pyridin-2-yl)-propionamide] it is 79.4%; for `COc1cc(Cc2cnc(NC(=O)CCc3ccccc3)s2)ccc1OC(=O)OCc1ccccc1` [Compound 41, Carbonic acid benzyl ester 2-methoxy-4-[2-(3-phenyl-propionylamino)-thiazol-5-ylmethyl]-phenyl ester] it is 95.8%. Consider `Cc1ccc(CCC(=O)Nc2ncc(Cc3ccc4ccccc4c3)s2)o1` [Compound 21, 3-(5-Methyl-furan-2-yl)-N-(5-naphthalen-2-ylmethyl-thiazol-2-yl)-propionamide], for which the inhibition at 10 µM is 97.1%.

`O=C(CCc1ccccc1)Nc1ccc(-c2ccc(F)cc2)cn1` [Compound 113, N-[5-(4-Fluoro-phenyl)-pyridin-2-yl]-3-phenyl-propionamide]: the inhibition at 10 µM was found to be 97.1%. The figure for `COc1cc(Cc2cnc(NC(=O)CCc3cccnc3)s2)cc(OC)c1OC` [Compound 50, 3-Pyridin-3-yl-N-[5-(3,4,5-trimethoxy-benzyl)-thiazol-2-yl]-propionamide] is 97.2%; for `O=C(CCc1cccnc1)Nc1ncc(Cc2ccc3ccccc3c2)s1` [Compound 24, N-(5-Naphthalen-2-ylmethyl-thiazol-2-yl)-3-pyridin-3-yl-propionamide] it is 95.2%.

Regarding `O=C(CCc1ccccc1)Nc1ncc(Cc2ccc(F)c(F)c2)s1` [Compound 25, N-[5-(3,4-Difluoro-benzyl)-thiazol-2-yl]-3-phenyl-propionamide], the inhibition at 10 µM came out at 94.2%. In the case of `COc1ccc(Cc2cnc(NC(=O)CCc3ccc(-c4ccccc4)cc3)s2)cc1` [Compound 51, 3-Biphenyl-4-yl-N-[5-(4-methoxy-benzyl)-thiazol-2-yl]-propionamide] it was 96.1%; in that of `COc1ccc(Cc2nnc(NC(=O)CCc3ccc(C)o3)s2)cc1` [Compound 88, N-[5-(4-Methoxy-benzyl)-[1,3,4]thiadiazol-2-yl]-3-(5-methyl-furan-2-yl)-propionamide], 93.5%. As for `O=C(CCc1ccc(-c2ccccc2)cc1)Nc1ncc(Sc2ccccc2)s1` [Compound 73, 3-Biphenyl-4-yl-N-(5-phenylsulfanyl-thiazol-2-yl)-propionamide], the inhibition at 10 µM worked out at 97%. For `O=C(CCc1cccnc1)Nc1ccc(Sc2ccccc2)cn1` [Compound 82, N-(5-Phenylsulfanyl-pyridin-2-yl)-3-pyridin-3-yl-propionamide], the inhibition at 10 µM came to 95.6%. In the case of `Cn1c(-c2ccccc2)cnc1NC(=O)CCc1ccccc1` [Compound 90, N-(1-Methyl-5-phenyl-1H-imidazol-2-yl)-3-phenyl-propionamide] it was 96.6%; in that of `COc1cccc(-c2ccc(NC(=O)CCc3ccc(C)o3)nc2)c1OC` [Compound 115, N-[5-(2,3-Dimethoxy-phenyl)-pyridin-2-yl]-3-(5-methyl-furan-2-yl)-propionamide], 95.8%; in that of `COc1cccc(CCC(=O)Nc2ncc(Cc3ccc(OC)c(OC)c3)s2)c1` [Compound 29, N-[5-(3,4-Dimethoxy-benzyl)-thiazol-2-yl]-3-(3-methoxy-phenyl)-propionamide], 96.6%.

Take `Cc1ccc(CCC(=O)Nc2ncc(Cc3ccc(F)c(F)c3)s2)o1` [Compound 30, N-[5-(3,4-Difluoro-benzyl)-thiazol-2-yl]-3-(5-methyl-furan-2-yl)-propionamide]: the inhibition at 10 µM worked out at 92.3%.

With `COc1cccc(N2CCN(c3cnc(NC(=O)CCc4ccccc4)s3)CC2)c1` [Compound 76, N-{5-[4-(3-Methoxy-phenyl)-piperazin-1-yl]-thiazol-2-yl}-3-phenyl-propionamide], the inhibition at 10 µM was determined as 95%.

Regarding `COc1cccc(CCC(=O)Nc2ncc(Cc3ccc(F)c(F)c3)s2)c1` [Compound 26, N-[5-(3,4-Difluoro-benzyl)-thiazol-2-yl]-3-(3-methoxy-phenyl)-propionamide], the inhibition at 10 µM was 92.9%.

Consider `COc1cccc(-c2ccc(NC(=O)CCc3ccccc3)nc2)c1OC` [Compound 116, N-[5-(2,3-Dimethoxy-phenyl)-pyridin-2-yl]-3-phenyl-propionamide], for which the inhibition at 10 µM turned out to be 94.1%. Take `O=C(CCc1cccnc1)Nc1ncc(Cc2c(F)c(F)c(F)c(F)c2F)s1` [Compound 36, N-(5-Pentafluorophenylmethyl-thiazol-2-yl)-3-pyridin-3-yl-propionamide]: the inhibition at 10 µM came to 94.3%. Consider `COc1ccc(Cc2nnc(NC(=O)CCc3ccccc3)s2)cc1` [Compound 89, N-[5-(4-Methoxy-benzyl)-[1,3,4]thiadiazol-2-yl]-3-phenyl-propionamide], for which the inhibition at 10 µM was 96.9%. In the case of `COc1ccc2cc(Cc3cnc(NC(=O)CCc4ccccc4)s3)ccc2c1` [Compound 14, N-[5-(6-Methoxy-naphthalen-2-ylmethyl)-thiazol-2-yl]-3-phenyl-propionamide] it was 89.5%. In the case of `COc1ccc(Cc2cnc(NC(=O)C(C)Cc3ccc(F)cc3)s2)cc1` (stereo not shown) [Compound 57, 3-(4-Fluoro-phenyl)-N-[5-(4-methoxy-benzyl)-thiazol-2-yl]-2-methyl-propionamide] it was 93.2%. Take `COc1ccc2cc(Cc3cnc(NC(=O)CCc4ccc(C)o4)s3)ccc2c1` [Compound 19, N-[5-(6-Methoxy-naphthalen-2-ylmethyl)-thiazol-2-yl]-3-(5-methyl-furan-2-yl)-propionamide]: the inhibition at 10 µM worked out at 94.1%. As to `O=C(Nc1ncc(Cc2ccc(F)c(F)c2)s1)OCc1ccccc1` [Compound 32, [5-(3,4-Difluoro-benzyl)-thiazol-2-yl]-carbamic acid benzyl ester], the inhibition at 10 µM was found to be 52.7%.

On to `O=C(Nc1ncc(-c2ccc(F)cc2)cn1)OCc1ccccc1` [Compound 109, [5-(4-Fluoro-phenyl)-pyrimidin-2-yl]-carbamic acid benzyl ester], for which the inhibition at 10 µM was 95.9%.

The values are drawn from patent publication US8883793B2, “Tubulin inhibitors and methods of using the same” (Development Center for Biotechnology, priority 2010, dated 2014).
